Measurements from PubChem BioAssay (NCI).
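These data come from cells grown in 96-well plates and exposed to compound for 48 hours at five concentrations. GI50 marks 50% less growth. At the TGI there is no net growth.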

Key:
Assay in all cases: NCI tumour cell line growth inhibition, 48 h
[1] = system: TK-10 renal
[2] = system: SNB-75 CNS
[3] = system: MALME-3M melanoma
[4] = system: SK-MEL-28 melanoma
[5] = system: MDA-MB-231 breast
[6] = system: IGROV1 ovarian
[7] = system: SW-620 colon
[8] = system: NCI-H522 lung
[9] = system: OVCAR-8 ovarian
[10] = system: HCC-2998 colon
[11] = system: HT29 colon
[12] = system: ACHN renal
[13] = system: UACC-257 melanoma
[14] = system: DU-145 prostate
[15] = system: COLO 205 colon
[16] = system: NCI/ADR-RES ovarian
[17] = system: HCT-15 colon
[18] = system: EKVX NSCLC
[19] = system: KM12 colon
[20] = system: NCI-H226 lung
[21] = system: OVCAR-5 ovarian
[22] = system: SF-295 CNS
[23] = system: HOP-62 NSCLC
[24] = system: NCI-H460 lung
[25] = system: A549 NSCLC
[26] = system: OVCAR-4 ovarian
[27] = system: CCRF-CEM leukemia
[28] = system: SF-268 CNS
[29] = system: UACC-62 melanoma
[30] = system: SK-OV-3 ovarian
[31] = system: SR leukemia
[32] = system: SF-539 CNS
[33] = system: SK-MEL-2 melanoma
[34] = system: PC-3 prostate
[35] = system: MOLT-4 leukemia
[36] = system: HL-60(TB) leukemia
[37] = system: T-47D breast
[38] = system: 786-0 renal
[39] = system: NCI-H23 lung
[40] = system: RPMI-8226 leukemia
[41] = system: MDA-MB-435
[42] = system: U251 CNS
[43] = system: A498 renal
[44] = system: K-562 leukemia
[45] = system: LOX IMVI melanoma
[46] = system: UO-31 renal
[47] = system: SN12C renal
[48] = system: HS 578T breast
[49] = system: M14 melanoma
[50] = system: CAKI-1 renal
[51] = system: HOP-92 NSCLC
[52] = system: RXF 393 renal
[53] = system: SK-MEL-5 melanoma
[54] = system: BT-549 breast
[55] = system: MCF7 breast
[56] = system: OVCAR-3 ovarian
[57] = system: HCT-116 colon

Q: `COc1cc(-c2cc(-c3ccc(N(C)C)cc3)nc(N3CCOCC3)c2C#N)cc(OC)c1OC` was tested. Which GI50 [1] did it give?
A: Its GI50 is 2510 nM.

Q: What about the TGI [1] of the same compound?
A: The TGI was greater than 100000 nM.

Q: And the GI50 [2]?
A: Its GI50 is 13300 nM.

Q: And the TGI [2]?
A: Its TGI is greater than 76900 nM.

Q: What about the GI50 [3] of the same compound?
A: Its GI50 is 1550 nM.

Q: And the TGI [3]?
A: The TGI was greater than 49100 nM.

Q: What about the GI50 [4] of the same compound?
A: Its GI50 is 433 nM.

Q: And the TGI [4]?
A: Its TGI is 5680 nM.

Q: What about the GI50 [5] of the same compound?
A: Its GI50 is 463 nM.

Q: And the TGI [5]?
A: The TGI was greater than 33500 nM.

Q: What about the GI50 [6] of the same compound?
A: The GI50 was 727 nM.

Q: And the TGI [6]?
A: The TGI was 70000 nM.

Q: What about the GI50 [7] of the same compound?
A: The GI50 was 2020 nM.

Q: What about the TGI [7] of the same compound?
A: The TGI was greater than 100000 nM.

Q: And the GI50 [8]?
A: The GI50 was 286 nM.

Q: What about the GI50 [9] of the same compound?
A: Its GI50 is 1270 nM.

Q: What about the TGI [9] of the same compound?
A: The TGI was greater than 100000 nM.

Q: What about the GI50 [10] of the same compound?
A: The GI50 was 2530 nM.

Q: And the TGI [10]?
A: The TGI was 21300 nM.

Q: And the GI50 [11]?
A: Its GI50 is 385 nM.

Q: What about the TGI [11] of the same compound?
A: Its TGI is greater than 36000 nM.

Q: And the GI50 [12]?
A: Its GI50 is 1020 nM.

Q: What about the TGI [12] of the same compound?
A: The TGI was greater than 100000 nM.

Q: What about the GI50 [13] of the same compound?
A: Its GI50 is 1180 nM.

Q: And the TGI [13]?
A: Its TGI is greater than 82900 nM.

Q: And the GI50 [14]?
A: The GI50 was 9120 nM.

Q: And the TGI [14]?
A: Its TGI is greater than 100000 nM.

Q: What about the GI50 [15] of the same compound?
A: The GI50 was 355 nM.

Q: And the TGI [15]?
A: The TGI was 24200 nM.

Q: And the GI50 [16]?
A: The GI50 was 246 nM.

Q: What about the TGI [16] of the same compound?
A: The TGI was greater than 91400 nM.

Q: What about the GI50 [17] of the same compound?
A: Its GI50 is 680 nM.

Q: What about the TGI [17] of the same compound?
A: The TGI was 44100 nM.

Q: And the GI50 [18]?
A: The GI50 was 988 nM.

Q: What about the TGI [18] of the same compound?
A: The TGI was greater than 100000 nM.

Q: What about the GI50 [19] of the same compound?
A: The GI50 was 1340 nM.

Q: What about the TGI [19] of the same compound?
A: The TGI was greater than 100000 nM.

Q: And the GI50 [20]?
A: The GI50 was 270 nM.

Q: What about the TGI [20] of the same compound?
A: Its TGI is 995 nM.

Q: And the GI50 [21]?
A: The GI50 was 248 nM.

Q: What about the TGI [21] of the same compound?
A: Its TGI is greater than 100000 nM.

Q: What about the GI50 [22] of the same compound?
A: The GI50 was 381 nM.

Q: What about the TGI [22] of the same compound?
A: Its TGI is 1110 nM.

Q: And the GI50 [23]?
A: The GI50 was 921 nM.

Q: And the TGI [23]?
A: The TGI was 10600 nM.

Q: And the GI50 [24]?
A: Its GI50 is 289 nM.

Q: What about the TGI [24] of the same compound?
A: Its TGI is greater than 61600 nM.

Q: What about the GI50 [25] of the same compound?
A: Its GI50 is 1250 nM.

Q: And the TGI [25]?
A: Its TGI is greater than 100000 nM.

Q: And the GI50 [26]?
A: The GI50 was 21400 nM.

Q: And the TGI [26]?
A: Its TGI is greater than 100000 nM.

Q: What about the GI50 [27] of the same compound?
A: The GI50 was 1210 nM.

Q: What about the TGI [27] of the same compound?
A: Its TGI is greater than 100000 nM.

Q: What about the GI50 [28] of the same compound?
A: Its GI50 is 3730 nM.

Q: What about the TGI [28] of the same compound?
A: Its TGI is greater than 100000 nM.

Q: And the GI50 [29]?
A: The GI50 was 628 nM.

Q: And the TGI [29]?
A: Its TGI is 1710 nM.

Q: What about the GI50 [30] of the same compound?
A: Its GI50 is 1620 nM.

Q: And the TGI [30]?
A: The TGI was greater than 100000 nM.

Q: What about the GI50 [31] of the same compound?
A: The GI50 was 260 nM.

Q: And the TGI [31]?
A: The TGI was 4040 nM.

Q: What about the GI50 [32] of the same compound?
A: The GI50 was 2220 nM.

Q: What about the TGI [32] of the same compound?
A: Its TGI is greater than 54800 nM.

Q: And the GI50 [33]?
A: Its GI50 is 1140 nM.

Q: And the TGI [33]?
A: Its TGI is 17900 nM.

Q: What about the GI50 [34] of the same compound?
A: Its GI50 is 2060 nM.

Q: What about the TGI [34] of the same compound?
A: The TGI was greater than 100000 nM.

Q: What about the GI50 [35] of the same compound?
A: Its GI50 is 1380 nM.

Q: And the TGI [35]?
A: Its TGI is greater than 100000 nM.

Q: What about the GI50 [36] of the same compound?
A: Its GI50 is 468 nM.

Q: What about the GI50 [37] of the same compound?
A: Its GI50 is 529 nM.

Q: And the TGI [37]?
A: The TGI was greater than 22500 nM.

Q: What about the GI50 [38] of the same compound?
A: The GI50 was 835 nM.

Q: What about the TGI [38] of the same compound?
A: The TGI was 13400 nM.

Q: And the GI50 [39]?
A: Its GI50 is 6660 nM.

Q: What about the TGI [39] of the same compound?
A: The TGI was greater than 100000 nM.

Q: And the GI50 [40]?
A: Its GI50 is 67.7 nM.

Q: What about the TGI [40] of the same compound?
A: Its TGI is 5080 nM.

Q: What about the GI50 [41] of the same compound?
A: The GI50 was 843 nM.

Q: And the TGI [41]?
A: Its TGI is 13400 nM.

Q: And the GI50 [42]?
A: Its GI50 is 1960 nM.

Q: And the TGI [42]?
A: The TGI was greater than 84600 nM.

Q: And the GI50 [43]?
A: The GI50 was 768 nM.

Q: And the TGI [43]?
A: Its TGI is 23700 nM.

Q: What about the GI50 [44] of the same compound?
A: Its GI50 is 961 nM.

Q: What about the TGI [44] of the same compound?
A: Its TGI is greater than 24600 nM.

Q: And the GI50 [45]?
A: Its GI50 is 67.6 nM.

Q: What about the TGI [45] of the same compound?
A: The TGI was 225 nM.

Q: And the GI50 [46]?
A: Its GI50 is 6850 nM.

Q: What about the TGI [46] of the same compound?
A: The TGI was greater than 60800 nM.

Q: And the GI50 [47]?
A: Its GI50 is 460 nM.

Q: And the TGI [47]?
A: The TGI was greater than 100000 nM.

Q: What about the GI50 [48] of the same compound?
A: The GI50 was 22100 nM.

Q: And the TGI [48]?
A: Its TGI is greater than 100000 nM.

Q: And the GI50 [49]?
A: The GI50 was 322 nM.

Q: What about the TGI [49] of the same compound?
A: Its TGI is 1470 nM.

Q: And the GI50 [50]?
A: Its GI50 is 333 nM.

Q: What about the TGI [50] of the same compound?
A: The TGI was greater than 33800 nM.

Q: And the GI50 [51]?
A: The GI50 was 1420 nM.

Q: And the TGI [51]?
A: The TGI was greater than 29900 nM.

Q: What about the GI50 [52] of the same compound?
A: The GI50 was 134 nM.

Q: And the TGI [52]?
A: The TGI was 3850 nM.

Q: What about the GI50 [53] of the same compound?
A: The GI50 was 171 nM.

Q: What about the TGI [53] of the same compound?
A: The TGI was 729 nM.

Q: What about the GI50 [54] of the same compound?
A: Its GI50 is 471 nM.

Q: What about the TGI [54] of the same compound?
A: Its TGI is greater than 100000 nM.

Q: What about the GI50 [55] of the same compound?
A: The GI50 was 1240 nM.

Q: What about the TGI [55] of the same compound?
A: Its TGI is greater than 55200 nM.

Q: And the GI50 [56]?
A: The GI50 was 12900 nM.

Q: And the TGI [56]?
A: Its TGI is greater than 83200 nM.

Q: And the GI50 [57]?
A: The GI50 was 388 nM.

Q: And the TGI [57]?
A: The TGI was greater than 100000 nM.
